According to the NIST ThermoML archive (doi:10.1021/je060026r):
Numbers after ± are expanded uncertainties.

Experiment: excess molar enthalpy (molar enthalpy of mixing); xn = mol fraction of the nth substance listed
Details: 313.15 K, 101 kPa, Liquid, Flow calorimetry

COCC(C)O (stereo unspecified) [1-methoxy-2-propanol] + c1ccccc1 showed an excess molar enthalpy (x1 = 0.0455) of 0.0767 ± 0.0017 kcal/mol, an excess molar enthalpy (x1 = 0.0914) of 0.124 ± 0.00263 kcal/mol and an excess molar enthalpy (x1 = 0.1377) of 0.155 ± 0.00335 kcal/mol. It also gave an excess molar enthalpy (x1 = 0.1845) of 0.176 ± 0.00382 kcal/mol, an excess molar enthalpy (x1 = 0.2317) of 0.188 ± 0.00406 kcal/mol and an excess molar enthalpy (x1 = 0.2794) of 0.194 ± 0.0043 kcal/mol. For the same molecule, the excess molar enthalpy (x1 = 0.3276) was 0.195 ± 0.0043 kcal/mol, the excess molar enthalpy (x1 = 0.3763) was 0.193 ± 0.00406 kcal/mol and the excess molar enthalpy (x1 = 0.4254) was 0.186 ± 0.00406 kcal/mol. It also gave an excess molar enthalpy (x1 = 0.475) of 0.179 ± 0.00382 kcal/mol, an excess molar enthalpy (x1 = 0.5251) of 0.167 ± 0.00359 kcal/mol and an excess molar enthalpy (x1 = 0.5758) of 0.153 ± 0.00335 kcal/mol. The excess molar enthalpy (x1 = 0.6269) was 0.139 ± 0.00311 kcal/mol, the excess molar enthalpy (x1 = 0.6786) was 0.122 ± 0.00263 kcal/mol and the excess molar enthalpy (x1 = 0.7308) was 0.103 ± 0.00225 kcal/mol. For the same molecule, the excess molar enthalpy (x1 = 0.7835) was 0.084 ± 0.00184 kcal/mol, the excess molar enthalpy (x1 = 0.8368) was 0.0643 ± 0.00143 kcal/mol and the excess molar enthalpy (x1 = 0.8906) was 0.0434 ± 0.00108 kcal/mol. The excess molar enthalpy (x1 = 0.945) was 0.0216 ± 0.001 kcal/mol.
For CCCCOCCO [2-butoxyethan-1-ol] + C1CCCCC1, the excess molar enthalpy (x2 = 0.0414) was 0.0997 ± 0.00217 kcal/mol, the excess molar enthalpy (x2 = 0.0836) was 0.149 ± 0.00311 kcal/mol and the excess molar enthalpy (x2 = 0.1265) was 0.183 ± 0.00406 kcal/mol. It also gave an excess molar enthalpy (x2 = 0.1702) of 0.207 ± 0.00454 kcal/mol, an excess molar enthalpy (x2 = 0.2148) of 0.222 ± 0.00478 kcal/mol and an excess molar enthalpy (x2 = 0.2602) of 0.233 ± 0.00502 kcal/mol. It also gave an excess molar enthalpy (x2 = 0.3065) of 0.24 ± 0.00526 kcal/mol, an excess molar enthalpy (x2 = 0.3536) of 0.243 ± 0.00526 kcal/mol and an excess molar enthalpy (x2 = 0.4017) of 0.242 ± 0.00526 kcal/mol. The excess molar enthalpy (x2 = 0.4507) was 0.238 ± 0.00502 kcal/mol, the excess molar enthalpy (x2 = 0.5007) was 0.229 ± 0.00502 kcal/mol and the excess molar enthalpy (x2 = 0.5518) was 0.219 ± 0.00478 kcal/mol. The excess molar enthalpy (x2 = 0.6038) was 0.204 ± 0.0043 kcal/mol, the excess molar enthalpy (x2 = 0.6569) was 0.186 ± 0.00406 kcal/mol and the excess molar enthalpy (x2 = 0.7111) was 0.165 ± 0.00359 kcal/mol. It also gave an excess molar enthalpy (x2 = 0.7665) of 0.139 ± 0.00311 kcal/mol, an excess molar enthalpy (x2 = 0.823) of 0.11 ± 0.00239 kcal/mol and an excess molar enthalpy (x2 = 0.8807) of 0.077 ± 0.0017 kcal/mol. For the same molecule, the excess molar enthalpy (x2 = 0.9397) was 0.0402 ± 0.00105 kcal/mol.
CCCCOCCO [2-butoxyethan-1-ol] + c1ccccc1 gave an excess molar enthalpy (x2 = 0.0343) of 0.0612 ± 0.00136 kcal/mol, an excess molar enthalpy (x2 = 0.0698) of 0.1 ± 0.0022 kcal/mol and an excess molar enthalpy (x2 = 0.1064) of 0.126 ± 0.00263 kcal/mol. It also gave an excess molar enthalpy (x2 = 0.1444) of 0.145 ± 0.00311 kcal/mol, an excess molar enthalpy (x2 = 0.1836) of 0.156 ± 0.00335 kcal/mol and an excess molar enthalpy (x2 = 0.2243) of 0.162 ± 0.00359 kcal/mol. It also gave an excess molar enthalpy (x2 = 0.2665) of 0.165 ± 0.00359 kcal/mol, an excess molar enthalpy (x2 = 0.3103) of 0.163 ± 0.00359 kcal/mol and an excess molar enthalpy (x2 = 0.3557) of 0.159 ± 0.00335 kcal/mol. The excess molar enthalpy (x2 = 0.4029) was 0.153 ± 0.00335 kcal/mol, the excess molar enthalpy (x2 = 0.452) was 0.144 ± 0.00311 kcal/mol and the excess molar enthalpy (x2 = 0.503) was 0.133 ± 0.00287 kcal/mol. It also gave an excess molar enthalpy (x2 = 0.5562) of 0.119 ± 0.00263 kcal/mol, an excess molar enthalpy (x2 = 0.6116) of 0.105 ± 0.00229 kcal/mol and an excess molar enthalpy (x2 = 0.6694) of 0.0891 ± 0.00196 kcal/mol. It also gave an excess molar enthalpy (x2 = 0.7297) of 0.0726 ± 0.0016 kcal/mol, an excess molar enthalpy (x2 = 0.7927) of 0.0544 ± 0.00122 kcal/mol and an excess molar enthalpy (x2 = 0.8586) of 0.0359 ± 0.00105 kcal/mol. It also gave an excess molar enthalpy (x2 = 0.9277) of 0.0175 ± 0.001 kcal/mol.
Molecule COCC(C)O (stereo unspecified) [1-methoxy-2-propanol] + C1CCCCC1 has an excess molar enthalpy (x1 = 0.0547) of 0.14 ± 0.00311 kcal/mol, an excess molar enthalpy (x1 = 0.109) of 0.213 ± 0.00454 kcal/mol and an excess molar enthalpy (x1 = 0.1626) of 0.261 ± 0.0055 kcal/mol. For the same molecule, the excess molar enthalpy (x1 = 0.2158) was 0.295 ± 0.00621 kcal/mol, the excess molar enthalpy (x1 = 0.2684) was 0.319 ± 0.00693 kcal/mol and the excess molar enthalpy (x1 = 0.3205) was 0.333 ± 0.00717 kcal/mol. The excess molar enthalpy (x1 = 0.3721) was 0.341 ± 0.00717 kcal/mol, the excess molar enthalpy (x1 = 0.4232) was 0.344 ± 0.00741 kcal/mol and the excess molar enthalpy (x1 = 0.4738) was 0.341 ± 0.00717 kcal/mol. For the same molecule, the excess molar enthalpy (x1 = 0.5239) was 0.335 ± 0.00717 kcal/mol, the excess molar enthalpy (x1 = 0.5736) was 0.321 ± 0.00693 kcal/mol and the excess molar enthalpy (x1 = 0.6227) was 0.305 ± 0.00645 kcal/mol. It also gave an excess molar enthalpy (x1 = 0.6715) of 0.283 ± 0.00598 kcal/mol, an excess molar enthalpy (x1 = 0.7197) of 0.258 ± 0.0055 kcal/mol and an excess molar enthalpy (x1 = 0.7675) of 0.227 ± 0.00478 kcal/mol. The excess molar enthalpy (x1 = 0.8149) was 0.191 ± 0.00406 kcal/mol, the excess molar enthalpy (x1 = 0.8618) was 0.15 ± 0.00335 kcal/mol and the excess molar enthalpy (x1 = 0.9083) was 0.105 ± 0.00229 kcal/mol. It also gave an excess molar enthalpy (x1 = 0.9544) of 0.0542 ± 0.00122 kcal/mol.
